Reference: patent CN115252762A, “一种高分子化合物的生长因子结合用途” (East China University of Science and Technology, priority 2021, dated 2022)

Experiments:
growth factors [生长因子] = experiment: Glass surface growth factor binding, peptide versus polymer (overall); settings: peptide versus (Lys0.4Nle0.6)30 polymer; grafted on glass
[1] = target: platelet-derived factor PDGF-AA [血小板衍生因子PDGF-AA] (Homo sapiens, UniProt P04085); experiment: Glass surface PDGF-AA binding, peptide versus polymer; settings: relative to (Lys0.4Nle0.6)30 polymer; grafted on glass
[2] = target: T1, bone morphogenetic protein-2 (BMP-2) [骨形态发生蛋白-2(BMP-2)] (Homo sapiens, UniProt P12643); experiment: Glass surface BMP-2 binding, protein immunofluorescence; settings: relative to (Lys0.4Nle0.6)30 polymer; grafted on glass
T1 sequence (P12643 283-396): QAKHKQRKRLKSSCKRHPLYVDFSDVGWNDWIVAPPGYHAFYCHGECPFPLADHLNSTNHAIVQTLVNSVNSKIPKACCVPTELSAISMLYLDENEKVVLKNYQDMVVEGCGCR

[3] = target: T2, fibroblast growth factor-21 (FGF-21) [成纤维细胞生长因子-21(FGF-21)] (Homo sapiens, UniProt Q9NSA1); experiment: Glass surface FGF-21 binding, protein immunofluorescence; settings: relative to (Lys0.4Nle0.6)30 polymer; grafted on glass
T2 sequence (Q9NSA1 29-209): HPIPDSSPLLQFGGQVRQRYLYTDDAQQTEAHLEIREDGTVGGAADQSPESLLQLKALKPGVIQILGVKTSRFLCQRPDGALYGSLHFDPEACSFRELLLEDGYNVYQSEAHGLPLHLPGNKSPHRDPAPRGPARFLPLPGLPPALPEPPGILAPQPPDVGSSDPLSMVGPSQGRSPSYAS

TGF-β = TGF-β (Homo sapiens, UniProt P01137); experiment: Glass surface TGF-β binding, peptide versus polymer; settings: relative to (Lys0.4Nle0.6)30 polymer; grafted on glass
Chain of TGF-β (P01137 279-390 limits assumed): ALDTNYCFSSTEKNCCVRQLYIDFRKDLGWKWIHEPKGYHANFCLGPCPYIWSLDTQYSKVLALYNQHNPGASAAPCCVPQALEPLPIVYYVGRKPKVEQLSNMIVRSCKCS

(L-Lys)-(L-Nor)-(D-Lys)-(D-Nor)-(L-Nor)-(L-Lys)-(D-Nor)-(D-Lys)-(L-Nor)-(D-Nor)-(L-Lys)-(L-Nor)-(D-Lys)-(D-Nor)-(L-Nor)-(L-Lys)-(D-Nor)-(D-Lys)-(L-Nor)-(D-Nor)-(L-Lys)-(L-Nor)-(D-Lys)-(D-Nor)-(L-Nor)-(L-Lys)-(D-Nor)-(L-Nor)-(L-Cys) [Lys0.4Nle0.6多肽]
growth factor binding compared with polymer (growth factors [生长因子]): 优于聚合物 | PDGF-AA binding amount, multiple of peptide polymer [1]: 2.06 fold | BMP-2 binding amount, multiple of peptide polymer [2]: 1.99 fold | FGF-21 binding amount, multiple of peptide polymer [3]: 2.55 fold | TGF-β binding amount, multiple of peptide polymer (TGF-β): 1.61 fold
